Experimental data: ChEMBL document CHEMBL1201862, “PubChem BioAssay data set” (2004)
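Cells were grown in 96-well plates and exposed to each compound for 48 hours at five concentrations; endpoints were interpolated linearly between bracketing concentrations, or set to the highest concentration if not reached. GI50 marks 50% less growth.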 The source made the active and inactive calls. Rule as the data show it: active = GI50 up to about 1.1 µM and inactive = higher.

Tests used:
Assay in all cases: NCI anticancer screen, dose series, 48 h
[1] = tested on: MDA-N
[2] = tested on: A498
[3] = tested on: OVCAR-4
[4] = tested on: HL-60
[5] = tested on: ACHN
[6] = tested on: NCI-H23
[7] = tested on: NCI-H226
[8] = tested on: MDA-MB-435
[9] = tested on: HOP-92
[10] = tested on: K562
[11] = tested on: MCF7
[12] = tested on: Malme-3M
[13] = tested on: SF-295
[14] = tested on: SN12C
[15] = tested on: NCI/ADR-RES
[16] = tested on: HCC 2998
[17] = tested on: SR
[18] = tested on: SK-MEL-2
[19] = tested on: T47D
[20] = tested on: CCRF-CEM
[21] = tested on: KM12
[22] = tested on: 786-0
[23] = tested on: UO-31
[24] = tested on: OVCAR-8
[25] = tested on: COLO 205
[26] = tested on: CAKI-1
[27] = tested on: A549
[28] = tested on: SW-620
[29] = tested on: PC-3
[30] = tested on: HCT-15
[31] = tested on: U-251
[32] = tested on: SF-268
[33] = tested on: SNB-75
[34] = tested on: SNB-19
[35] = tested on: OVCAR-3
[36] = tested on: UACC-62
[37] = tested on: EKVX
[38] = tested on: DU-145
[39] = tested on: Hs-578T
[40] = tested on: HT-29
[41] = tested on: SF-539
[42] = tested on: HOP-62
[43] = tested on: HCT-116
[44] = tested on: BT-549
[45] = tested on: UACC-257
[46] = tested on: OVCAR-5
[47] = tested on: NCI-H522
[48] = tested on: IGROV-1
[49] = tested on: RPMI-8226
[50] = tested on: LOX IMVI
[51] = tested on: NCI-H460
[52] = tested on: TK-10
[53] = tested on: RXF 393
[54] = tested on: MOLT-4
[55] = tested on: SK-MEL-28
[56] = tested on: M14
[57] = tested on: SK-MEL-5
[58] = tested on: MDA-MB-231
[59] = tested on: SK-OV-3

## O=c1[nH]nc(-c2ccc([N+](=O)[O-])cc2)[nH]1
[1]
  GI50: > 100 µM (inactive)
[2]
  GI50: > 100 µM (inactive)
[3]
  GI50: > 100 µM (inactive)
[4]
  GI50: > 100 µM (inactive)
[5]
  GI50: > 100 µM (inactive)
[6]
  GI50: > 100 µM (inactive)
[7]
  GI50: > 100 µM (inactive)
[8]
  GI50: > 100 µM (inactive)
[9]
  GI50: > 100 µM (inactive)
[10]
  GI50: > 100 µM (inactive)
[11]
  GI50: > 100 µM (inactive)
[12]
  GI50: > 100 µM (inactive)
[13]
  GI50: > 100 µM (inactive)
[14]
  GI50: > 100 µM (inactive)
[15]
  GI50: > 100 µM (inactive)
[16]
  GI50: > 100 µM (inactive)
[17]
  GI50: > 100 µM (inactive)
[18]
  GI50: > 100 µM (inactive)
[19]
  GI50: > 100 µM (inactive)
[20]
  GI50: > 100 µM (inactive)
[21]
  GI50: > 100 µM (inactive)
[22]
  GI50: > 100 µM (inactive)
[23]
  GI50: > 100 µM (inactive)
[24]
  GI50: > 100 µM (inactive)
[25]
  GI50: > 100 µM (inactive)
[26]
  GI50: > 100 µM (inactive)
[27]
  GI50: > 100 µM (inactive)
[28]
  GI50: > 100 µM (inactive)
[29]
  GI50: > 100 µM (inactive)
[30]
  GI50: > 100 µM
[31]
  GI50: > 100 µM (inactive)
[32]
  GI50: > 100 µM (inactive)
[33]
  GI50: > 100 µM (inactive)
[34]
  GI50: > 100 µM (inactive)
[35]
  GI50: > 100 µM (inactive)
[36]
  GI50: > 100 µM (inactive)
[37]
  GI50: 45.4 µM (inactive)
[38]
  GI50: > 100 µM (inactive)
[39]
  GI50: > 100 µM (inactive)
[40]
  GI50: > 100 µM (inactive)
[41]
  GI50: > 100 µM (inactive)
[42]
  GI50: > 100 µM (inactive)
[43]
  GI50: > 100 µM (inactive)
[44]
  GI50: 19.1 µM (inactive)
[45]
  GI50: > 100 µM (inactive)
[46]
  GI50: > 100 µM (inactive)
[47]
  GI50: > 100 µM (inactive)
[48]
  GI50: > 100 µM (inactive)
[49]
  GI50: > 100 µM (inactive)
[50]
  GI50: > 100 µM (inactive)
[51]
  GI50: > 100 µM (inactive)
[52]
  GI50: > 100 µM (inactive)
[53]
  GI50: > 100 µM (inactive)
[54]
  GI50: > 100 µM (inactive)
[55]
  GI50: > 100 µM (inactive)
[56]
  GI50: > 100 µM (inactive)

## O=C1C2CC=CCC2C(=O)N1n1c(-c2ccccc2)n[nH]c1=O (stereo unspecified)
[1]
  GI50: > 100 µM (inactive)
[2]
  GI50: > 100 µM (inactive)
[3]
  GI50: > 100 µM (inactive)
[57]
  GI50: > 100 µM (inactive)
[5]
  GI50: > 100 µM (inactive)
[6]
  GI50: > 100 µM (inactive)
[7]
  GI50: > 100 µM (inactive)
[8]
  GI50: > 100 µM (inactive)
[9]
  GI50: > 100 µM (inactive)
[10]
  GI50: > 100 µM (inactive)
[11]
  GI50: > 100 µM (inactive)
[12]
  GI50: > 100 µM (inactive)
[13]
  GI50: > 100 µM (inactive)
[14]
  GI50: > 100 µM (inactive)
[15]
  GI50: > 100 µM (inactive)
[16]
  GI50: > 100 µM (inactive)
[17]
  GI50: > 100 µM (inactive)
[18]
  GI50: > 100 µM (inactive)
[19]
  GI50: > 100 µM (inactive)
[20]
  GI50: > 100 µM (inactive)
[21]
  GI50: > 100 µM (inactive)
[58]
  GI50: > 100 µM (inactive)
[22]
  GI50: > 100 µM (inactive)
[23]
  GI50: > 100 µM (inactive)
[24]
  GI50: > 100 µM (inactive)
[25]
  GI50: > 100 µM (inactive)
[26]
  GI50: > 100 µM (inactive)
[27]
  GI50: > 100 µM (inactive)
[28]
  GI50: > 100 µM (inactive)
[29]
  GI50: > 100 µM (inactive)
[30]
  GI50: > 100 µM
[31]
  GI50: > 100 µM (inactive)
[32]
  GI50: > 100 µM (inactive)
[34]
  GI50: > 100 µM (inactive)
[35]
  GI50: > 100 µM (inactive)
[36]
  GI50: > 100 µM (inactive)
[37]
  GI50: > 100 µM (inactive)
[39]
  GI50: > 100 µM (inactive)
[40]
  GI50: > 100 µM (inactive)
[41]
  GI50: > 100 µM (inactive)
[42]
  GI50: > 100 µM (inactive)
[43]
  GI50: > 100 µM (inactive)
[44]
  GI50: > 100 µM (inactive)
[45]
  GI50: > 100 µM (inactive)
[46]
  GI50: > 100 µM (inactive)
[47]
  GI50: > 100 µM (inactive)
[48]
  GI50: > 100 µM (inactive)
[49]
  GI50: > 100 µM (inactive)
[50]
  GI50: > 100 µM (inactive)
[51]
  GI50: > 100 µM (inactive)
[52]
  GI50: > 100 µM (inactive)
[53]
  GI50: > 100 µM (inactive)
[54]
  GI50: > 100 µM (inactive)
[59]
  GI50: > 100 µM (inactive)
[56]
  GI50: > 100 µM (inactive)

## CCOC(=O)NNC(=O)C1CSC(c2ccccc2)N1C(C)=O (stereo unspecified)
[2]
  GI50: > 100 µM (inactive)
[3]
  GI50: > 100 µM (inactive)
[4]
  GI50: > 100 µM (inactive)
[57]
  GI50: > 100 µM (inactive)
[5]
  GI50: > 100 µM (inactive)
[6]
  GI50: > 100 µM (inactive)
[7]
  GI50: > 100 µM (inactive)
[8]
  GI50: > 100 µM (inactive)
[9]
  GI50: 82.2 µM (inactive)
[10]
  GI50: > 100 µM (inactive)
[11]
  GI50: > 100 µM (inactive)
[12]
  GI50: > 100 µM (inactive)
[13]
  GI50: > 100 µM (inactive)
[14]
  GI50: > 100 µM (inactive)
[15]
  GI50: > 100 µM (inactive)
[16]
  GI50: > 100 µM (inactive)
[18]
  GI50: > 100 µM (inactive)
[19]
  GI50: > 100 µM (inactive)
[20]
  GI50: > 100 µM (inactive)
[21]
  GI50: > 100 µM (inactive)
[58]
  GI50: > 100 µM (inactive)
[22]
  GI50: > 100 µM (inactive)
[23]
  GI50: > 100 µM (inactive)
[24]
  GI50: > 100 µM (inactive)
[25]
  GI50: > 100 µM (inactive)
[26]
  GI50: > 100 µM (inactive)
[27]
  GI50: > 100 µM (inactive)
[28]
  GI50: > 100 µM (inactive)
[29]
  GI50: > 100 µM (inactive)
[30]
  GI50: > 100 µM
[31]
  GI50: > 100 µM (inactive)
[32]
  GI50: > 100 µM (inactive)
[33]
  GI50: > 100 µM (inactive)
[34]
  GI50: > 100 µM (inactive)
[35]
  GI50: > 100 µM (inactive)
[36]
  GI50: > 100 µM (inactive)
[37]
  GI50: > 100 µM (inactive)
[38]
  GI50: > 100 µM (inactive)
[39]
  GI50: > 100 µM (inactive)
[40]
  GI50: > 100 µM (inactive)
[41]
  GI50: > 100 µM (inactive)
[42]
  GI50: > 100 µM (inactive)
[43]
  GI50: > 100 µM (inactive)
[44]
  GI50: > 100 µM (inactive)
[45]
  GI50: > 100 µM (inactive)
[46]
  GI50: > 100 µM (inactive)
[47]
  GI50: > 100 µM (inactive)
[48]
  GI50: > 100 µM (inactive)
[49]
  GI50: > 100 µM (inactive)
[50]
  GI50: > 100 µM (inactive)
[51]
  GI50: > 100 µM (inactive)
[52]
  GI50: > 100 µM (inactive)
[54]
  GI50: > 100 µM (inactive)
[59]
  GI50: > 100 µM (inactive)
[56]
  GI50: > 100 µM (inactive)
